Results published in BindingDB's records for PubMed 9694916 (Smithkline Beecham Pharmaceuticals, 1998).

Assays:
Endothelin-1 receptor = target: T1, Endothelin-1 receptor (Homo sapiens, UniProt P25101)
T1 sequence (P25101 whole entry): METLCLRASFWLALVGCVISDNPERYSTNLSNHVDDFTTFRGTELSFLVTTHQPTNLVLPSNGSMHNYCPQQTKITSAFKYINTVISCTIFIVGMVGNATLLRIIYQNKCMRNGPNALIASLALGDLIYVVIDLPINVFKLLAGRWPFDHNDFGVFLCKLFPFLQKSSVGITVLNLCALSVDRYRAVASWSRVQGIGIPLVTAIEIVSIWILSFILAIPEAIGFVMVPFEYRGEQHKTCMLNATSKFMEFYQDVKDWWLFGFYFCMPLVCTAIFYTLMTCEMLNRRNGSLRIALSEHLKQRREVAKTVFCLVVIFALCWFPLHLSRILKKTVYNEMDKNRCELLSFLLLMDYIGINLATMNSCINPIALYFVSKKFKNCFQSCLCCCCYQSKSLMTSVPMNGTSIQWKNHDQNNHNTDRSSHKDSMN

[1] = target: T2, Endothelin receptor type B (Homo sapiens, UniProt P24530)
T2 sequence (P24530 whole entry): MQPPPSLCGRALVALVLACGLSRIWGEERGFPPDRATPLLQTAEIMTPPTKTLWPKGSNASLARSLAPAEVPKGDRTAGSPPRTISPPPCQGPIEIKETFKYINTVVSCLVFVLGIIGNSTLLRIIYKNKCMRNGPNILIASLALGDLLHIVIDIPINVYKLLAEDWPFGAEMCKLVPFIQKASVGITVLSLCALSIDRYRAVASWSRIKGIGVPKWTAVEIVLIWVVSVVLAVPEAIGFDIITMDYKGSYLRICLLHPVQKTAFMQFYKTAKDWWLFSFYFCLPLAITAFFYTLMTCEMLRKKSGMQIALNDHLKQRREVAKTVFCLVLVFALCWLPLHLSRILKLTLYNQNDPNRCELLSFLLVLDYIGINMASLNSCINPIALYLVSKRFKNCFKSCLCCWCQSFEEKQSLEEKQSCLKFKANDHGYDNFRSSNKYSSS

Ki (Endothelin-1 receptor) [nM] | Ki [1] [nM] | Compound
0.4 | 21 | CCCOc1ccc2c(c1)[C@@H](c1ccc(OC)cc1OCC(=O)O)[C@H](C(=O)O)[C@H]2c1ccc2c(c1)OCO2 [(1S,2R,3S)-1-Benzo[1,3]dioxol-5-yl-3-(2-carboxymethoxy-4-methoxy-phenyl)-5-propoxy-indan-2-carboxylic acid]
1.5 | 150 | CCCOc1ccc2c(c1)[C@@H](c1ccc(OC)cc1OCCO)[C@H](C(=O)O)[C@H]2c1ccc2c(c1)OCO2 [Enrasentan]
0.13 | 500 | CCCCn1ncc(/C=C(\Cc2cc3c(cc2OC)OCO3)C(=O)O)c1-c1ccc(OC)cc1OCc1ccccc1C(=O)O [SB-234551]
